# Reference: publication PMC10035389, “Safety, Tolerability, and Pharmacokinetics of TAK-931, a Cell Division Cycle 7 Inhibitor, in Patients with Advanced Solid Tumors: A Phase I First-in-Human Study” (Cancer Research Communications, 2022)
# Where two headings read alike, the source gives them in different places.
# Key:
# [1] = animal toxicology studies; used as escalation limit; cited from earlier work
# [2] = Plasma and urine pharmacokinetics, noncompartmental analysis; type: in vivo, human; settings: for half-life / Tmax: human, plasma; for half-life: po; for Tmax: oral
# Method: DLTs included: cycle 1 grade ≥3 hematologic and non-hematologic events or grade 2 non-hematologic events considered by the investigator to be TAK-931-related, grade 2 ejection fraction decrease, >2 weeks delay in initiating cycle 2 (1 week for schedules D and E), and >50% TAK-931 dose reduction in cycle 1 due to treatment-related adverse events (AEs; see Supplementary Materials and Methods for full DLT criteria). Toxicity was evaluated by NCI Common Terminology Criteria for Adverse Events (version 4.03). Tumor response was measured using the RECIST (version 1.1) ([16]). Serial blood samples for pharmacokinetic analysis were collected during cycle 1 on days 1 and 7 (schedule B), 1 and 8 (schedules A and D), or 1 and 9 (schedule E). Pharmacokinetic parameters were estimated from concentration–time profiles using noncompartmental methods with WinNonlin® Phoenix™ version 8.1 (Certara, Princeton, NJ). pMCM2 was detected semiquantitatively by IHC of histologic sections of formalin-fixed, paraffin-embedded skin and tumor biopsies using anti-pMCM2 (3378-1, Epitomics Inc.; ref. [15]). Quantitative image analysis determined pMCM2 levels as “histologic score nuclei (H-score).” Skin punch biopsies (2–4 mm) were obtained during screening or predose on cycle 1, day 1 and for patients in schedules A, B, and D, postdose on any drug dosing day after 3 consecutive dosing days in cycle 1. A postdose skin biopsy was obtained on day 9 in schedule E. Fresh tumor biopsy pairs were collected predose and postdose on any dosing day after the completion of 3 consecutive dosing days in cycle 1 from patients who received doses considered to have biological effect.
# The safety population included patients who received ≥1 dose of TAK-931. The pharmacodynamic-evaluable population comprised patients from the safety population with a baseline and ≥1 additional postbaseline biopsy sample that was suitable for pMCM2 analysis. The pharmacokinetic-evaluable population included patients with sufficient dosing and TAK-931 concentration–time data to estimate pharmacokinetic parameters. The response-evaluable population included patients in the safety population with measurable disease at baseline and ≥1 postbaseline response assessment.
smiles,measurement,setting,value
"Cc1[nH]ncc1-c1cc2nc([C@@H]3CC4CCN3CC4)[nH]c(=O)c2s1 [TAK-931, simurosertib]",Cmax threshold for off-target adverse effects (hypotension),[1],800 ng/mL
same,Accumulation following higher doses,[2]; 120 and 150 mg,minor accumulation
same,Renal clearance (CLr) as share of total apparent clearance,"[2]; estimated amount excreted in urine, n = 79",approximately 8%
same,half-life,"[2]; 50 mg, oral administration of 50 mg, read-out: Terminal half-life (converted)",~5 h
same,half-life,"[2]; oral administration, read-out: Estimated T1/2",5 to 6 h
same,half-life,"[2]; oral administration, read-out: Mean half-life (T1/2)",4.58 to 6.53 h
same,Tmax,"[2]; 50 mg dose, read-out: Tmax",~2 h
same,Tmax,"[2]; postdose, over the dose range of 20–50 mg, read-out: Median time to maximum plasma concentration (Tmax)",1 to 4 h
same,"Systemic exposures between day 1 and days 7, 8, or 9",[2]; multiple dosing,mostly unchanged
same,Plasma exposure vs dose,[2]; single- and multiple-dose administration over 20–50 mg,approximately dose proportional
same,Systemic exposure vs dose (dose-normalized AUC24),[2]; single- and multiple-dose administration over the range 20–150 mg,approximately dose proportional
